# Patent publication EP2787003A1, “Antimicrobial peptide produced by marine sponge-derived Bacillus subtilis” (priority 2013, dated 2014)
# Tests used:
# [1] = system: C. albicans; experiment: Spot on lawn assay; assay type: cell-based, Candida albicans SC5314; set-up: key: +, clear halo of growth inhibition; ++: multiple +, increased activity as assessed visually by the increased diameter of the inhibition zone; +++: multiple +, increased activity as assessed visually by the increased diameter of the inhibition zone; ++++: multiple +, increased activity as assessed visually by the increased diameter of the inhibition zone; +++++: multiple +, increased activity as assessed visually by the increased diameter of the inhibition zone; -, no inhibition; details: indicator C. albicans
# Procedure: (§1) Antimicrobial activity of isolate MMA7 against the indicator strains was initially assessed with a deferred antagonism assay as described by Phelan et al. (2012). Subsequent testing of supernatants, crude extracts and purified compounds was carried out with a well and/or a spot on lawn assays. Essentially, 5 µl of samples were spotted onto 20 ml agar plates seeded with the indicator strain to a final OD600 of 0.015, or 30 µl aliquots were applied to a 5 mm well made on identical plates.
# [2] = system: S. aureus; experiment: Spot on lawn assay; assay type: cell-based, Staphylococcus aureus NCDO 949; set-up: key: +, clear halo of growth inhibition; ++: multiple +, increased activity as assessed visually by the increased diameter of the inhibition zone; +++: multiple +, increased activity as assessed visually by the increased diameter of the inhibition zone; ++++: multiple +, increased activity as assessed visually by the increased diameter of the inhibition zone; +++++: multiple +, increased activity as assessed visually by the increased diameter of the inhibition zone; -, no inhibition; details: indicator S. aureus
# Procedure: as §1
# [3] = system: C. difficile; experiment: Spot on lawn assay; assay type: cell-based, Clostridium difficile 001; set-up: key: +, clear halo of growth inhibition; ++: multiple +, increased activity as assessed visually by the increased diameter of the inhibition zone; +++: multiple +, increased activity as assessed visually by the increased diameter of the inhibition zone; ++++: multiple +, increased activity as assessed visually by the increased diameter of the inhibition zone; +++++: multiple +, increased activity as assessed visually by the increased diameter of the inhibition zone; -, no inhibition; details: indicator C. difficile
# Procedure: as §1
# [4] = system: C. sporogenes; experiment: Spot on lawn assay; assay type: cell-based, Clostridium sporogenes NCDO 1791; set-up: key: +, clear halo of growth inhibition; ++: multiple +, increased activity as assessed visually by the increased diameter of the inhibition zone; +++: multiple +, increased activity as assessed visually by the increased diameter of the inhibition zone; ++++: multiple +, increased activity as assessed visually by the increased diameter of the inhibition zone; +++++: multiple +, increased activity as assessed visually by the increased diameter of the inhibition zone; -, no inhibition; details: indicator C. sporogenes
# Procedure: as §1
# [5] = system: B. megaterium; experiment: Spot on lawn assay; assay type: cell-based, Bacillus megaterium ATCC 19213 (BGSC 7A2); set-up: key: +, clear halo of growth inhibition; ++: multiple +, increased activity as assessed visually by the increased diameter of the inhibition zone; +++: multiple +, increased activity as assessed visually by the increased diameter of the inhibition zone; ++++: multiple +, increased activity as assessed visually by the increased diameter of the inhibition zone; +++++: multiple +, increased activity as assessed visually by the increased diameter of the inhibition zone; -, no inhibition; details: indicator B. megaterium
# Procedure: as §1
# [6] = system: VRE; experiment: Spot on lawn assay; assay type: cell-based, VRE EC725; set-up: key: +, clear halo of growth inhibition; ++: multiple +, increased activity as assessed visually by the increased diameter of the inhibition zone; +++: multiple +, increased activity as assessed visually by the increased diameter of the inhibition zone; ++++: multiple +, increased activity as assessed visually by the increased diameter of the inhibition zone; +++++: multiple +, increased activity as assessed visually by the increased diameter of the inhibition zone; -, no inhibition; details: indicator VRE
# [7] = system: E. faecium; experiment: Spot on lawn assay; assay type: cell-based, Euterococcous faecium NCIMB 11508; set-up: key: +, clear halo of growth inhibition; ++: multiple +, increased activity as assessed visually by the increased diameter of the inhibition zone; +++: multiple +, increased activity as assessed visually by the increased diameter of the inhibition zone; ++++: multiple +, increased activity as assessed visually by the increased diameter of the inhibition zone; +++++: multiple +, increased activity as assessed visually by the increased diameter of the inhibition zone; -, no inhibition; details: indicator E. faecium
# Procedure: as §1
# [8] = system: B. cereus; experiment: Spot on lawn assay; assay type: cell-based, Bacillus cereus NCIMB 9373; set-up: key: +, clear halo of growth inhibition; ++: multiple +, increased activity as assessed visually by the increased diameter of the inhibition zone; +++: multiple +, increased activity as assessed visually by the increased diameter of the inhibition zone; ++++: multiple +, increased activity as assessed visually by the increased diameter of the inhibition zone; +++++: multiple +, increased activity as assessed visually by the increased diameter of the inhibition zone; -, no inhibition; details: indicator B. cereus
# Procedure: as §1
# [9] = target: proteinase K (Parengyodontium album, UniProt P06873); experiment: Susceptibility to proteolytic enzymes, bioactivity by spot on lawn assay; details: proteinase K 1 mg ml^-1, 37 °C, 1 h; indicator L. monocytogenes
# Chain of proteinase K (P06873 106-384): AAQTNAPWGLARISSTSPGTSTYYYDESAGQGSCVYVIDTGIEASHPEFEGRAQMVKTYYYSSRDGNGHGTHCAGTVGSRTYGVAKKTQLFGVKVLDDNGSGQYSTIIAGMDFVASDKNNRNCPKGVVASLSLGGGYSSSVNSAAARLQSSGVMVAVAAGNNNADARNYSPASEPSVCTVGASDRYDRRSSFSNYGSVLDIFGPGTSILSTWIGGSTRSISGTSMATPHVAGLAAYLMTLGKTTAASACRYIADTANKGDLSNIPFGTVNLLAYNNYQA
# [10] = system: C. parapsilosis; experiment: Spot on lawn assay; assay type: cell-based, Candida parapsilosis; set-up: key: +, clear halo of growth inhibition; ++: multiple +, increased activity as assessed visually by the increased diameter of the inhibition zone; +++: multiple +, increased activity as assessed visually by the increased diameter of the inhibition zone; ++++: multiple +, increased activity as assessed visually by the increased diameter of the inhibition zone; +++++: multiple +, increased activity as assessed visually by the increased diameter of the inhibition zone; -, no inhibition; details: indicator C. parapsilosis
# Procedure: as §1
# [11] = system: L. lactis HP; experiment: Spot on lawn assay; assay type: cell-based, Lactococcus lactis HP; set-up: key: +, clear halo of growth inhibition; ++: multiple +, increased activity as assessed visually by the increased diameter of the inhibition zone; +++: multiple +, increased activity as assessed visually by the increased diameter of the inhibition zone; ++++: multiple +, increased activity as assessed visually by the increased diameter of the inhibition zone; +++++: multiple +, increased activity as assessed visually by the increased diameter of the inhibition zone; -, no inhibition; details: indicator L. lactis HP
# Procedure: as §1
# [12] = system: C. dubliniensis; experiment: Spot on lawn assay; assay type: cell-based, Candida dubliniensis; set-up: key: +, clear halo of growth inhibition; ++: multiple +, increased activity as assessed visually by the increased diameter of the inhibition zone; +++: multiple +, increased activity as assessed visually by the increased diameter of the inhibition zone; ++++: multiple +, increased activity as assessed visually by the increased diameter of the inhibition zone; +++++: multiple +, increased activity as assessed visually by the increased diameter of the inhibition zone; -, no inhibition; details: indicator C. dubliniensis
# Procedure: as §1
# [13] = dried pellets from 1.5 ml RP-HPLC-purified fractions
smiles,measurement,setting,value
C=C1NC(=O)[C@@H]2CSC[C@@H](NC(=O)[C@@H]3CS[C@@H](C)[C@H]4NC(=O)[C@H](Cc5ccccc5)NC(=O)[C@H](NC(=O)[C@H](CCCNC(=N)N)NC(=O)[C@@H]5CSC[C@@H](NC(=O)[C@H](CCC(N)=O)NC(=O)[C@@H](NC(=O)[C@@H](NC(=O)/C(=C/C)NC(=O)[C@H](CCCCN)NC(=O)CNC(=O)[C@@H](NC(=O)/C(=C/C)NC(=O)[C@H](C)NC(=O)[C@H](Cc6c[nH]c7ccccc67)NC(=O)C(=O)CC)[C@@H](C)CC)[C@@H](C)CC)C(C)C)C(=O)N[C@@H](C(C)C)C(=O)N[C@@H](CCCCN)C(=O)N[C@@H](CCCCN)C(=O)N5)[C@H](C)SC[C@H](NC4=O)C(=O)NCC(=O)N3)C(=O)N[C@@H](CC(C)C)C(=O)NCC(=O)N[C@H](CSC[C@@H](C(=O)N[C@@H](CC(N)=O)C(=O)O)NC(=O)[C@H](CC(N)=O)NC1=O)C(=O)N2 [Subtilomycin],"Antimicrobial activity, spot on lawn assay",[1],-
same,"Antimicrobial activity, spot on lawn assay",[2],+
same,"Antimicrobial activity, spot on lawn assay",[3],-
same,"Antimicrobial activity, spot on lawn assay",[4],+++
same,"Antimicrobial activity, spot on lawn assay",[5],++
same,"Antimicrobial activity, spot on lawn assay",[6],-
same,"Antimicrobial activity, spot on lawn assay",[7],-
same,"Antimicrobial activity, spot on lawn assay",[8],++
same,Antimicrobial activity after proteolytic treatment,[9],None of the treatments resulted in a decrease of activity
same,"Antimicrobial activity, spot on lawn assay",[10],-
same,"Antimicrobial activity, spot on lawn assay",[11],+
same,"Antimicrobial activity, spot on lawn assay",[12],-
same,Solubility in water,[13],fully soluble
